In PMC11191602, “A novel and selective fluorescent ligand for the study of adenosine A2B receptors” (Pharmacology Research & Perspectives, 2024):

How the values were obtained:
[1] = target: T1, endogenous A2BR in human monocyte‐derived M2‐like macrophages (Homo sapiens, UniProt P29275); assay: Flow cytometry of PSB603‐BY630 binding to M2‐like macrophages; type: cell-based; conditions: 100 nM PSB603‐BY630, 10 μM unlabelled PSB603, six donors, p <.01 paired t‐test
T1 construct: monitor endogenous A2BR expression on human macrophages; endogenous in cells; host or cells: M1-like (GMCSF) and M2-like (MCSF) macrophages differentiated from CD14+ monocytes of healthy human donors
T1 sequence (P29275 1-332): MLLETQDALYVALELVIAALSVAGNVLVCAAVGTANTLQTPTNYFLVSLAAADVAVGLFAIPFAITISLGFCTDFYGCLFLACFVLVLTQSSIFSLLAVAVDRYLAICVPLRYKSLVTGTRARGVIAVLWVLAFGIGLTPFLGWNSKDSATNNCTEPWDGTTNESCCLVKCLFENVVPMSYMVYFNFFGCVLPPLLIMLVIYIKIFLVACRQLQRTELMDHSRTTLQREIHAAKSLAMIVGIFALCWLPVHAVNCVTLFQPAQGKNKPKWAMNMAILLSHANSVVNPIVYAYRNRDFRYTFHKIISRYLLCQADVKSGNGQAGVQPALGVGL
Procedure: (§1) One hundred and fifty milliliter peripheral blood was obtained in heparinised 60 mL syringes by venepuncture from healthy volunteers after written informed consent (Ethics from University of Nottingham Ethics committee, ref 161–1711). Peripheral blood mononuclear cells (PBMC) were immediately separated by density centrifugation over Lymphoprep (Stemcell, UK) at 800g for 25 min on low brake followed by washes in endotoxin‐free phosphate‐buffered saline (PBS, Sigma). PBMC were washed in MACS buffer (PBS + 1% fetal calf serum (FCS, Sigma) + […] (Sigma)) then incubated with CD14 microbeads (Miltenyi Biotech) and monocytes isolated by magnetic separation on an AutoMACS Pro cell separator (Miltenyi). Cell purity was routinely assessed by flow cytometry (>95%). […]
(§2) Harvested macrophages were resuspended in staining buffer (HBSS [Sigma] supplemented with 2.5% v/v FCS and Ethylenediaminetetraacetic acid‐ EDTA 5 mM) at 2 × 10^6 cells/mL. […] BODIPY 630/650 fluorescence was measured on a MACSQuant 10 Flow Cytometer (Miltenyi) immediately after incubation (>5 × 10^4 events acquired). Flow cytometry data were analyzed using FlowJo software v10. […]

[2] = system: A2BR; set-up: method as in PMID 29106905, PMID 19569717; conditions: cited from earlier work
[3] = target: T2, endogenous A2BR in human monocyte‐derived M1‐like macrophages (Homo sapiens, UniProt P29275); assay: Flow cytometry of PSB603‐BY630 binding to M1‐like macrophages; type: cell-based; conditions: 100 nM PSB603‐BY630, 10 μM unlabelled PSB603, six donors, p <.01 paired t‐test
T2 construct: monitor endogenous A2BR expression on human macrophages; endogenous in cells; host or cells: M1-like (GMCSF) and M2-like (MCSF) macrophages differentiated from CD14+ monocytes of healthy human donors
T2 sequence (P29275 1-332): T1 sequence (P29275 1-332)
Procedure: as §1, §2

[4] = target: T3, NLuc‐A2BR (Homo sapiens, UniProt P29275); assay: NanoBRET competition binding against 50 nM PSB603‐BY630 in HEK293G cells expressing NLuc‐A2BR
T3 construct: expressed in transfected cells
T3 sequence (P29275 1-332): T1 sequence (P29275 1-332)
Procedure: Saturation and competition binding assays were performed as previously described.[36] Briefly, cells were seeded in 96‐well white clear‐bottomed Greiner plates pre‐treated with 10 μg/mL poly‐D‐lysine (Sigma‐Aldrich, Missouri USA) at a density of 30 000–35 000 cells per well in DMEM supplemented with 10% FBS. […] The NanoLuc substrate, furimazine (Promega Corporation, Wisconsin, USA), was then added to each well (1:400 dilution) and the plate was incubated for 10 min in the dark at 37°C. The resulting bioluminescence resonance energy transfer (BRET) was measured using a PHERAstar FS plate reader (BMG Labtech) at 37°C. For each well, filtered light emissions at 460 nm (80 nm bandpass) and >610 nm (longpass) for the BODIPY630/650 ligand were simultaneously measured. BRET ratios were calculated by dividing the 610 nm emission by the 460 nm emission. All conditions were performed in 2–6 replicates within each plate. For kinetic experiments, cells were preincubated for 10 min with 1:400 dilution of furimazine prior to addition of 200 nM PSB603‐BY630 and BRET ratios determined every 0.5 min.
The IC 50 values were then used to calculate the K i values using the Cheng‐Prussoff equation: Ki=IC50/1+L/KD where [L] is the concentration of PSB603‐BY630 in nM, and K D is the dissociation constant of that fluorescent ligand in nM.

## CCCn1c(=O)[nH]c2nc(-c3ccc(S(=O)(=O)N4CCN(c5ccc(Cl)cc5)CC4)cc3)[nH]c2c1=O [PSB603, 8‐[4‐[4‐(4‐Chlorophenzyl)piperazide‐1‐sulfonylphenyl]]‐1‐propylxanthine]
[1]
  inhibition of PSB603‐BY630 binding (median fluorescence intensity): significant inhibiton
[2]
  affinity for A2BR: sub‐nanomolar
[3]
  inhibition of PSB603‐BY630 binding (median fluorescence intensity): significant inhibiton
[4]
  Appararent Log K i: −9.12 ± 0.08
  Log IC50: −8.55 ± 0.08
